Usually inhibition stands for how much of the control response was suppressed. The term LD50 denotes the dose at which mortality reaches 50%. The low end stands for a more toxic substance, the high end for a less toxic substance.

Several values for one entry are separate records, joined by “and”; a condition that tells them apart may be missing. Equal values may be shown once.

For one series, the target named is T1, C1s (Homo sapiens, UniProt P09871).
T1 sequence (P09871 438-688 limits assumed): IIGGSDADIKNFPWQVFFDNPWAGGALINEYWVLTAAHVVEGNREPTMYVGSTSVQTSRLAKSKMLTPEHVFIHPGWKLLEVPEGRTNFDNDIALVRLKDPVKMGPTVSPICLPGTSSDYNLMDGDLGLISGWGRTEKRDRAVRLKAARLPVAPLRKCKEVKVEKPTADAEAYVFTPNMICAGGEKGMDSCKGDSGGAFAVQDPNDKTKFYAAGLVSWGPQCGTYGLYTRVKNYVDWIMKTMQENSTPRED
T1 sequence (P09871 16-437 partner limits assumed): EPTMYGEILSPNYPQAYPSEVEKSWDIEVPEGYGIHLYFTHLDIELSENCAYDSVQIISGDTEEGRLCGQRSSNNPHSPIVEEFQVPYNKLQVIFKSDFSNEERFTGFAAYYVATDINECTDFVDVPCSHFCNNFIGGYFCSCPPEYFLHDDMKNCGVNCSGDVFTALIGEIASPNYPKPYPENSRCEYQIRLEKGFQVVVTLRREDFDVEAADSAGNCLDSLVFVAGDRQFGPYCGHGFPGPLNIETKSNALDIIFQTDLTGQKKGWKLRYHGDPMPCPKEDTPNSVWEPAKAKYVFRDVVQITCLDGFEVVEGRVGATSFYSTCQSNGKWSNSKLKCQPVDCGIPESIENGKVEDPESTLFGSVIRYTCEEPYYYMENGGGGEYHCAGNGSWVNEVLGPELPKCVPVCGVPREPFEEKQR
Description: biochemical. The following applies: ATEE hydrolysis; read-out: Anti-C1 activity, C1s ID50. Here is the method:
The anti-Cl esterase (Clr, Cls) activity was determined according to the method of Okamura et al. [K. Okamura, M. Muramatsu and S. Fujii, Biochem. Biophys. […] The figures in Table 2 have the following meanings:
Cls: Molar concentration of the test compound which inhibits 50% of the ability of Cls to hydrolyse ATEE (acetyltyrosin ethyl ester).

The target in the next series is T2, C1r (Homo sapiens, UniProt P00736).
T2 sequence (P00736 464-705 limits assumed): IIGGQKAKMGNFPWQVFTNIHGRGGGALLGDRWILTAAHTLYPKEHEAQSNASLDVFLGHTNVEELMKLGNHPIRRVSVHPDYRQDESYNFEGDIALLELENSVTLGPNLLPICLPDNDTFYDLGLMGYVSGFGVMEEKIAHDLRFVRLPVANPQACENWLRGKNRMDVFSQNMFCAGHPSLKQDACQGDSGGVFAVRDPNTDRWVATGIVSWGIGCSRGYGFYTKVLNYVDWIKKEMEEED
T2 sequence (P00736 18-463 partner limits assumed): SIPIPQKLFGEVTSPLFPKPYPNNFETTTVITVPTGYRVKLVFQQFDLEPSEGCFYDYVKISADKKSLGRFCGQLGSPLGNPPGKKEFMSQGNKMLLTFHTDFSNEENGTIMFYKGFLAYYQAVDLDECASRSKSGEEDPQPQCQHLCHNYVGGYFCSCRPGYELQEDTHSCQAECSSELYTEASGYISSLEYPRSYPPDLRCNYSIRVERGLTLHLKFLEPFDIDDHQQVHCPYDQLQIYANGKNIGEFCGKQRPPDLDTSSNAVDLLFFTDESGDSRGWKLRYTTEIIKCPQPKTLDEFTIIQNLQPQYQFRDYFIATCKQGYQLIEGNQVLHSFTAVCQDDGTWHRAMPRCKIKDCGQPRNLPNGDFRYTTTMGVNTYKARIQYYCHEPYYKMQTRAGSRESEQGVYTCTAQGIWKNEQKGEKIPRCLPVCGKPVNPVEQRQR
The experiment in a line: Anti-C1 esterase (C1r) activity (hydrolysis of AAME). The class given is biochemical. The following applies: AAME hydrolysis; read-out: Anti-C1 activity, C1r ID50. Here is the method:
The anti-Cl esterase ([…]) activity was determined according to the method of Okamura et al. [K. Okamura, M. Muramatsu and S. Fujii, Biochem. Biophys.

The subject of series [1] is complement mediated hemolysis. The experiment in a line: Inhibition of complement mediated hemolysis. It is filed as cell-based.
Description: The principle of this method is based on the fact that hemolysis is caused by the activation of complement, when the latter is added to a complex (immune complex) of erythrocytes and the antibody thereof. The degree of hemolysis varies in proportion to the amount of complement added. Therefore, when a known amount of complement admixed with a C1 esterase inhibitor is used, the hemolysis must be suppressed in proportion to the inhibitory activity.
The target of the next series is Plasmin (Homo sapiens, UniProt P00747). Description: Anti-plasmin activity (hydrolysis of TAME). It is filed as biochemical. The following applies: for inhibition at 10 µM: at 1×10^-5 M, read-out: Plasmin percentage inhibition; for IC50: molar concentration inhibiting 50% of TAME hydrolysis, read-out: Plasmin ID50. Here is the method: (§1) The anti-trypsin, anti-plasmin, anti-kallikrein and anti-thrombin activities were determined according to the method of Muramatsu et al. [M. Muramatsu, T. Onishi, S. Makino, Y. Hayashi and S. Fujii, J. of Biochem., 58, 214 (1965)]. […] The compound No. corresponds to the compound number shown in Examples.
Sequence of Plasmin (P00747 581-810 limits assumed, species assumed): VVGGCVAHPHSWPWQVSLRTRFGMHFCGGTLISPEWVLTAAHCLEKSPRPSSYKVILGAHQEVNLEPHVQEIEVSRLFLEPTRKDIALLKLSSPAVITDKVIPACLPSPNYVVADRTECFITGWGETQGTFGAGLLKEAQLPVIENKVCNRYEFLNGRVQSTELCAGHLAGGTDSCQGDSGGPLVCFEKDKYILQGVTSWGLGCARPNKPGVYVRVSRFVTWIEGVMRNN
Sequence of Plasmin (P00747 97-580 partner limits assumed, species assumed): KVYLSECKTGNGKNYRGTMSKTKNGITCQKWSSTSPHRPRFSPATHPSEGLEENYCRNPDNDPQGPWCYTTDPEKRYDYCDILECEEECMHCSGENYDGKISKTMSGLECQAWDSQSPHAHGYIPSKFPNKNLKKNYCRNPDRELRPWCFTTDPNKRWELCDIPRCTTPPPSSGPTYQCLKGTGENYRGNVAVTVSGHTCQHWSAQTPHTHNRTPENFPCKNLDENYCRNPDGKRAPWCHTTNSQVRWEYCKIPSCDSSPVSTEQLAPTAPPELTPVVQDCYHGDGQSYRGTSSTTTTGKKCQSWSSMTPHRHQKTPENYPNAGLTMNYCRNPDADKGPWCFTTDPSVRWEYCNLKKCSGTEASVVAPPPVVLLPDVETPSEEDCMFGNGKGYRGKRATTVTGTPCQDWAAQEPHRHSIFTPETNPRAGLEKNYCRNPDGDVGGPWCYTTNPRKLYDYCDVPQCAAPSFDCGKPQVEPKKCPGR

The next series addresses Thrombin (Homo sapiens, UniProt P00734). The experiment in a line: biochemical. The following applies: for IC50: molar concentration inhibiting 50% of TAME hydrolysis, read-out: Thrombin ID50; for inhibition at 10 µM: at 1×10^-5 M, read-out: Thrombin percentage inhibition.
Series [2] has as its system Kallikrein. Description: Anti-kallikrein activity (hydrolysis of TAME). It is filed as biochemical. Particulars: at 1×10^-5 M.
In a further series the target is T3, Trypsin (Bos taurus, UniProt P00760).
T3 sequence (P00760 24-246): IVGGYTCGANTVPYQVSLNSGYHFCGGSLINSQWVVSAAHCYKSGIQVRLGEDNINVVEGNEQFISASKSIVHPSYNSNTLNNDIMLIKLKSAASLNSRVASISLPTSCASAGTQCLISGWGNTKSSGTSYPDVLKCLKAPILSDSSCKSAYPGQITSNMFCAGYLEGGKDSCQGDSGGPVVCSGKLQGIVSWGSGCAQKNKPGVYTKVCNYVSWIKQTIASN
Description: Anti-trypsin activity (hydrolysis of TAME). The class given is biochemical. The following applies: molar concentration inhibiting 50% of TAME hydrolysis; read-out: Trypsin ID50. Here is the method: as §1

Series [3] can be described thus: Toxicity, median lethal dose (LD50). Particulars: in vivo.
Series [4] concerns Kallikrein. Description: Anti-kallikrein activity (hydrolysis of TAME). Particulars: molar concentration inhibiting 50% of TAME hydrolysis; read-out: Kallikrein ID50. The class given is biochemical. As for the experimental part: The anti-trypsin, anti-plasmin, anti-kallikrein and anti-thrombin activities were determined according to the method of Muramatsu et al. [M. Muramatsu, T. Onishi, S. Makino, Y. Hayashi and S. Fujii, J. of Biochem., 58, 214 (1965)]. The data summarized in Table 1 are expressed in terms of molar concentration (ID50) of the test compound which inhibits 50% of the activity of each enzyme to hydrolyze TAME (tosylalginine methyl ester). The compound No. corresponds to the compound number shown in Examples.

The subject of another series is Forssman shock. The experiment in a line: Forssman shock (survival time after hemolysin). It is filed as in vivo, Male Hartlay guinea pig. The following applies: 5 minutes before hemolysin. From the text: Quite different from other animals, guinea pig has on the surface of its organs a specific antigen called Forssman antigen which specifically reacts with the antibody of sheep erythrocyte. Forssman shock is based on the above principle and is a shock caused by the administration of antibody of sheep erythrocyte to a guinea pig. The Forssman shock was investigated in detail by many researchers and it was definitely shown that this shock is a model case where the complement plays the principal part and that the shock is associated with a classical pathway in which the complement system is activated progressively starting from C1. Since the participation of complement in autoimmune diseases has been established, the Forssman shock can be said to be a useful means for testing a drug for autoimmune diseases. A drug effective for the treatment of Forssman shock is useful as a drug of autoimmune diseases. [Anti-trypsin, anti-plasmin, anti-kallikrein and anti-thrombin activities]
The experiment was performed according to the method of I. G. Offerness et al. [Biochem. Pharmacol., 27 (14), 1873-1878 (1978)]. Male Hartlay guinea pig of about 300 g in body weight was used. Each guinea pig of the control group was administered intravenously with 0.5 ml (minimum dose to cause the shock) of hemolysin (commercial hemolysin, 5,000 U as assayed by the method of Ogata) and the time elapsed until death was observed. For the test group, each guinea pig was administered intravenously with the test compound 5 minutes before the administration of hemolysin and the time (second) elapsed until death was observed.

For `N=C(N)c1ccc2cc(OC(=O)c3ccc(O)cc3)ccc2c1` [Compound 11, 6-amidino-2-naphthyl 4-hydroxybenzoate], the IC50 amounted to 200 nM on C1s, 100 nM on C1r, 7000 nM at Thrombin and 300 nM on Trypsin. The “Inhibition of complement mediated hemolysis (%)” value (shortened to “Inhibition … (%)”) in series [1] (1 × 10^-4) worked out at 96%; in series [1] (1 × 10^-5) it was 56%; in [1] (1 × 10^-6) it was 6%; in series [1] (1 × 10^-7), 13%. The inhibition at 10 µM at Plasmin was 36%. In the series with Kallikrein [2], this molecule showed a Kallikrein percentage inhibition of 21%.

With `N=C(N)c1ccc2cc(OC(=O)c3ccc4c(c3)OCO4)ccc2c1` [Compound 10], the IC50 came to 200 nM on C1s; 200 nM on C1r; 50000 nM on Plasmin; 4000 nM on Thrombin; 200 nM at Trypsin. Moreover, the “Inhibition … (%)” value in series [1] (1 × 10^-4) was 97%; in [1] (1 × 10^-5), 75%; in series [1] (1 × 10^-6), 9%; in [1] (1 × 10^-7), 2%. This molecule also registered a Kallikrein percentage inhibition with Kallikrein [2] of 31%.

Turning to `N=C(N)Nc1ccc(C(=O)Oc2ccc3cc(C(=N)N)ccc3c2)cc1` [Compound 27, 6-amidino-2-naphthyl 4-guanidinobenzoate], the LD50 in [3] (ip) was determined as 200 mg/kg; in series [3] (po), 2500 mg/kg. Also, the IC50 stood at 50 nM on C1s, 5000 nM in the series on Kallikrein [4], 100 nM on C1r and 3000 nM at Thrombin. The “Inhibition … (%)” value is listed as 100% in series [1] (1 × 10^-4), 100% in series [1] (1 × 10^-5), 97% in series [1] (1 × 10^-6) and 44% in series [1] (1 × 10^-7). The “Time elapsed until death, individual animal” value with Forssman shock (0.5 mg/kg intravenous) is 732 s and 740 s and 723 s and 724 s and 590 s and 410 s; with Forssman shock (1.0 mg/kg intravenous), 740 sec. and 820 sec. and Survival and 670 sec. and 1325 sec. The “Time elapsed until death, average” value in the series with Forssman shock (0.5 mg/kg intravenous, control average 465) was 653 s; with Forssman shock (1.0 mg/kg intravenous, control average 465 (No. 27), 428 (No. 22)), more than 889 s.

`N=C(N)c1ccc2cc(OC(=O)c3ccc(N)cc3)ccc2c1` [Compound 20, 6-amidino-2-naphthyl 4-aminobenzoate]: the IC50 at C1s is 200 nM; on C1r, 200 nM; at Thrombin it was more than 10000 nM; at Trypsin it was 60 nM. In addition, the “Inhibition … (%)” value in series [1] (1 × 10^-4) came to 95%; in [1] (1 × 10^-5), 46%; in [1] (1 × 10^-6), 5%; in series [1] (1 × 10^-7), 0%. Further, the inhibition at 10 µM on Plasmin was found to be 27%. The Kallikrein percentage inhibition in the series with Kallikrein [2] is given as 31%.

As to `CC(=O)Oc1ccc(C(=O)Oc2ccc3cc(C(=N)N)ccc3c2)cc1` [Compound 13], the IC50 was determined as 300 nM on C1s, 300 nM at C1r, 2000 nM on Plasmin and 400 nM at Trypsin. The “Inhibition … (%)” value in series [1] (1 × 10^-4) was 94%; in series [1] (1 × 10^-5), 42%; in [1] (1 × 10^-6) it was 5%; in series [1] (1 × 10^-7), 4%. For the same molecule, the inhibition at 10 µM on Thrombin was determined as 39%. This molecule gave a Kallikrein percentage inhibition with Kallikrein [2] of 24%.

As to `CSc1ccc(C(=O)Oc2ccc3cc(C(=N)N)ccc3c2)cc1` [Compound 30], the IC50 amounted to 300 nM at C1s; 500 nM at C1r; 2000 nM on Plasmin; 4000 nM at Thrombin; 2000 nM on Trypsin. Moreover, the “Inhibition … (%)” value worked out at 14% in [1] (1 × 10^-4), 90% in [1] (1 × 10^-5), 40% in [1] (1 × 10^-6) and 6% in [1] (1 × 10^-7). Further, the Kallikrein percentage inhibition in the series on Kallikrein [2] stood at 41%.

As for `CCCCOc1ccc(C(=O)Oc2ccc3cc(C(=N)N)ccc3c2)cc1` [Compound 8], the IC50 on C1s is 400 nM; at C1r, 10000 nM; on Trypsin, 40 nM. In addition, the “Inhibition … (%)” value in [1] (1 × 10^-4) is 46%; in [1] (1 × 10^-5), 18%; in series [1] (1 × 10^-6) it was 23%. Also, the inhibition at 10 µM on Plasmin came out at 17%; on Thrombin, 29%. Further, the Kallikrein percentage inhibition in the series on Kallikrein [2] was found to be 43%.

The record behind these values is US4532255A, “Amidine compounds and anticomplement agent comprising same” (Torii & Co., Ltd., priority 1980, dated 1985).
